Laboratory results: patent US10350164B2, “Process for preparing a dry powder formulation comprising an anticholinergic, a corticosteroid and a beta-adrenergic” (CHIESI FARMACEUTICI S.p.A., priority 2017, dated 2019)

Legend:
Type in all cases: physicochemical
[1] = Specific Surface Area (SSA) by BET nitrogen adsorption
Method: (§1) Co-micronized microparticles and reference micronized glycopyrronium bromide were exposed to the following conditions:
(§2) Thin layer (˜0.5 cm) in open tray for 3 days at 30° C./65% relative humidity (RH);
(§3) Thin layer (˜0.5 cm) in open tray for 4 hours at 25° C./90% RH
(2) Specific Surface Area (SSA) by Brunauer-Emmett-Teller (BET) nitrogen adsorption method according to a known procedure, and […]

[2] = Recrystallization water by Dynamic Vapour Sorption (DVS)
Method: as §1, §2, §3
(3) recrystallization of water using a Dynamic Vapour Sorption (DVS) instrument (Mettler Toledo GmbH, Switzerland).

[3] = Aerosol performance by Next Generation Impactor (NGI) from multidose dry powder inhaler; settings: for Mid Fine Particle Mass: between 2.0 and 5.0 micron; for Fine Particle Mass: particle size equal to or lower than 5.0 micron
Method: It is calculated by the percentage ratio of the fine particle mass (formerly fine particle dose) to the delivered dose.
The delivered dose is calculated from the cumulative deposition in the apparatus, while the fine particle mass is calculated from the deposition of particles having a diameter <5.0 microns.
After aerosolization of 3 doses from the inhaler device, the NGI apparatus was disassembled and the amounts of drug deposited in the stages were recovered by washing with a solvent mixture and then quantified by High-Performance Liquid Chromatography (HPLC).

[4] = Particle size distribution (PSD) by Malvern analysis, initially and after open-tray exposure
Method: The size of the particles active is determined by measuring the characteristic equivalent sphere diameter, known as volume diameter, by laser diffraction. […] However, other equivalent apparatus may be used.
as §2, §3
(i) particle size distribution (PSD) in terms of d(v0.1), d(v0.5) and d(v0.9) by Malvern analysis, […]

[5] = Uniformity of distribution of the active ingredients in the blend by HPLC
Method: It is usually determined according to known methods, for instance by taking samples from different parts of the powder and testing the component by HPLC or other equivalent analytical methods.
The uniformity of distribution of the active ingredients was evaluated by withdrawing 12 samples from different parts of the blend and evaluated by HPLC.

[6] = Open thin layer 3 days at 30° C./65% RH
[7] = Example 3 formulation (6/100/12.5 μg)
[8] = Example 4 formulation (6/100/25 μg)
[9] = Open thin layer 4 hours at 25° C./90% RH

`C[N+]1(C)CCC(OC(=O)C(O)(c2ccccc2)C2CCCC2)C1` (racemic) [GB, glycopyrronium bromide] gave an SSA ([1]; Initial) of 7.31 m^2/g, an SSA [1, 6] of 1.85 m^2/g and a Re-crystallization water ([2]; Initial) of 0.12 % w/w. For the same compound, the Re-crystallization water [2, 6] was 0.02% w/w, the “Extrafine Particle Fraction <1 μm” value [3, 7] was 15.4% and the “Extrafine Particle Fraction <2 μm” value [3, 7] was 37.6%. For the same compound, the “Extrafine Particle Mass <1 μm” value [3, 7] was 1.8 µg, the “Extrafine Particle Mass <2 μm” value [3, 7] was 4.39 µg and the “Fine Particle Fraction” value [3, 7] was 67.2%. The MMAD [3, 7] was 1.92 μm, the “Mid Fine particle Fraction” value [3, 7] was 29.6% and the “Mid Fine Particle Mass” value [3, 7] was 3.46 µg. The “Delivered Dose” value ([3]; Example 3 formulation (6/100/12.5 μg), mean±S.D) was 11.66 (±0.4) μg, the “Fine Particle Mass” value [3, 7] was 7.85 µg and the “Delivered Dose” value [3, 8] was 21.30 µg. The “Extrafine Particle Fraction <1 μm” value [3, 8] was 8.2%, the “Extrafine Particle Fraction <2 μm” value [3, 8] was 25.8% and the “Extrafine Particle Mass <1 μm” value [3, 8] was 1.75 µg. For the same compound, the “Extrafine Particle Mass <2 μm” value [3, 8] was 5.49 µg, the “Fine Particle Fraction” value [3, 8] was 50.7% and the MMAD [3, 8] was 2.15 μm. The “Mid Fine particle Fraction” value [3, 8] was 27.9%, the “Mid Fine Particle Mass” value [3, 8] was 5.94 µg and the “Fine Particle Mass” value [3, 8] was 10.8 µg. The “PSD D(v0.9)” value ([4]; Initial) was 3.95 μm, the “PSD d(v0.1)” value ([4]; Initial) was 0.60 μm and the “PSD d(v0.5)” value ([4]; Initial) was 1.54 μm. For the same compound, the “PSD D(v0.9)” value [4, 9] was 1657 μm, the “PSD d(v0.1)” value [4, 9] was 2.74 μm and the “PSD d(v0.5)” value [4, 9] was 156 μm. For the same compound, the “PSD D(v0.9)” value [4, 6] was 7.59 μm, the “PSD d(v0.1)” value [4, 6] was 1.00 μm and the “PSD d(v0.5)” value [4, 6] was 3.91 μm.
With `CCC(=O)OCC(=O)[C@@]1(OC(=O)CC)[C@@H](C)C[C@H]2[C@@H]3CCC4=CC(=O)C=C[C@]4(C)[C@@]3(Cl)[C@@H](O)C[C@@]21C` [BDP, beclometasone dipropionate] the Uniformity of distribution ([5]; Example 3 formulation (FF 6 μg/BDP 100 μg/GB 12.5 μg per 10 mg carrier), 12 samples, mean value±RSD) was 101.8 (±1.1) and the Uniformity of distribution ([5]; Example 4 formulation (FF 6 μg/BDP 100 μg/GB 25 μg per 10 mg carrier)) was 100.2 (±1.2).
